In experiment [1] the test system is HDAC activity (Mouse Liver Extract). Description: Histone Deacetylase (HDAC) Inhibition Assay using Boc-Lys (Ac)-AMC Substrate. In kind it is biochemical. The following applies: mouse liver enzyme; for HDAC Inhibition 1 μM: inhibitor at 1 μM; for HDAC Inhibition 1 μM / HDAC Inhibition 10 μM: in % (unit assumed); for HDAC Inhibition 10 μM: inhibitor at 10 μM. The protocol:
Histone Deacetylase (HDAC) Inhibition Assay using Boc-Lys (Ac)-AMC Substrate: Inhibition of HDAC has been implicated to modulate transcription and to induce apoptosis or differentiation in cancer cells. The fluorometric assay provides a fast and fluorescence based method that eliminates radioactivity, extractions or chromatography, as used in traditional assays. The assay based on two steps. First, the HDAC fluorometric substrate, which comprises an acetylated lysine side chain, is incubated with a sample containing HDAC activity (Mouse Liver Extract). Deacetylation of the substrate sensitizes the substrate, in the second step; treatment with the Trypsin stop solution produces a fluorophore that can be easily analyzed using fluorescence plate reader.
Assay was done in 96 well black microplate and total volume of the assay is 100 ul. Mouse liver enzyme is diluted 1:6 with HDAC buffer. Enzyme cocktail made of 10 ul of diluted enzyme and 30 ul of HDAC buffer. 40 ul of enzyme cocktail dispensed into each well. 10 ul of different concentrations of inhibitor added in to each well, except enzyme control well. Preincubated the plate at 30° C. for 5 minutes. The HDAC reaction is started by adding 50 ul of HDAC substrate (Boc-Lys (Ac)-AMC Substrate) solution. Incubated the plate at 30° C. for 30 minutes. Adding 100 ul of Trypsin stop solution stops the reaction. The plate is incubated again at 30° C. for 20-30 minutes. The release of AMC is monitored by measuring the fluorescence at excitation wavelength of 365 or 360 nm and emission wavelength of 440 or 460 nm. Buffer and substrate alone kept for blank subtraction. (Dennis Wegener et al, Anal. Biochem, 321, 2003, 202-208).

Experiment [2] concerns HCT 116 cells. Description: cells. Particulars: Homo sapiens, HCT-116, 48 h; for GI50: read-out: HCT116 GI50; for CC50: read-out: HCT116 LC50. The protocol: (§1) Experimental drugs are screened for anti-cancer activity in three cell lines for their GI50, TGI and LC50 values (using five concentrations for each compound). The cell lines are maintained in DMEM containing 10% fetal bovine serum. 96 well micro titer plates are inoculated with cells in 100 μL for 24 h at 37° C., 5% CO2, 95% air and 100% relative humidity. 5000 HCT 116 cells/well, 5000 NCIH 460 cells/well and 5000 U251 cells/well are plated. A separate plate with these cell lines is also inoculated to determine cell viability before the addition of the compounds (T0) (See Table I).
(§2) Following 24-hour incubation, experimental drugs are added to the 96 well plates. Each plate contains one of the above cell lines and the following in triplicate: five different concentrations (0.01, 0.1, 1, 10 and 100 μM) of four different compounds, appropriate dilutions of a cytotoxic standard and control (untreated) wells. Compounds are dissolved in DMSO to make 20 mM stock solutions on the day of drug addition and frozen at −20° C. Serial dilutions of these 20 mM stock solutions are made in complete growth medium such that 100 μL of these drug solutions in medium, of final concentrations equaling 0.01, 0.1, 1, 10 and 100 μM can be added to the cells in triplicate. […] (See Table I).
(§3) For T0 measurement, 24 hours after seeding the cells, 10 μL of 3-(4,5-Dimethyl-2-thiazolyl)-2,5-diphenyl-2H-tetrazolium (MTT) solution per well is added and incubation carried out for 3 hours at 37° C., 5% CO2, 95% air and 100% relative humidity, protected from light. Cells incubated with compounds for 48 hours are treated similarly except with the addition of 20 μL MTT solution per well and a subsequent incubation under the same conditions. After 3 hours of MTT incubation, well contents are aspirated carefully followed by addition of 150 μL DMSO per well. Plates are agitated to ensure solution of the formazan crystals in DMSO and absorbance read at 570 nm. (See Table I).
(§4) Percent growth is calculated for each compound's concentration relative to the control and zero measurement wells (T0; viability right before compound addition).
(§5) If a test well's O.D. value is lower than the T0 measurement for that cell line, then, % Growth=(test−zero)/zero×100

Experiment [3] deals with MDAMB231/U251. Description: cells. Particulars: 48 h, read-out: MDAMB231/U251 GI50. The protocol: as §1, §2, §3, §4, §5
Experiment [4] has as its system NCIH 460 cells. Description: cells. Particulars: Homo sapiens, NCI-H460, 48 h; for GI50: read-out: NCIH460 GI50; for CC50: read-out: NCIH460 LC50. The protocol:
as §1, §2, §3, §4, §5

Experiment [5] deals with MDAMB231/U251. Briefly: cells. The following applies: 48 h, read-out: MDAMB231/U251 LC50.
For experiment [6], the system named is NCIH460, HCT116, MDAMB231/U251. Briefly: Anti-cancer screen, mean GI50 over the cell lines. The experiment is classed as cell-based. Particulars: mean over the three cell lines; no unit in table. The protocol:
as §1, §2, §3
Percent growth is calculated for each compound's concentration relative to the control and zero measurement wells (T0; viability right before compound addition). […]

Usually IC50 stands for the concentration at which inhibition is half-maximal. Turning to `Cc1ncsc1/C=C(\C(=O)NCCCCCC(=O)NO)c1ccc(Br)cc1` [Example 23, (2Z)-3-(4-Methylthiazol-5-yl)-2-(4-bromophenyl)-N-[6-(hydroxyamino)-6-oxohexyl]acrylamide], the “HDAC Inhibition 1 μM” value in experiment [1] is 42.7. Besides, the “HDAC Inhibition 10 μM” value in experiment [1] amounted to 81.07. This molecule returned an IC50 in experiment [1] of 1.8 µM. Further, the GI50 stood at 6 µM in experiment [2], 1 µM in experiment [3], 0.8 µM in experiment [4] and 2.6 µM in experiment [6]. Moreover, the values for the CC50 in experiment [2], in experiment [4] and in experiment [5] were greater than 100 µM, greater than 100 µM and 90 µM, respectively.
Regarding `O=C(CCCCCNC(=O)/C(=C\c1ccc(F)c(C(F)(F)F)c1)c1ccc([N+](=O)[O-])cc1)NO` [Example 24, (2Z)-3-(4-Fluoro-3-trifluoromethylphenyl)-2-(4-nitrophenyl)-N-[6-(hydroxyamino)-6-oxohexyl]acrylamide], the “HDAC Inhibition 1 μM” value in experiment [1] is on record as 46.1. Also, the “HDAC Inhibition 10 μM” value in experiment [1] amounted to 99.5. In addition, the GI50 in experiment [2] worked out at 5 µM; in experiment [3] it was 0.3 µM; in experiment [4] it was 16 µM; in experiment [6], 7.21 µM. Also, the CC50 in experiment [2] is greater than 100 µM; in experiment [4] it was 82 µM; in experiment [5] it was 75 µM.
For `Cc1ncsc1/C=C(\C(=O)NCCCCCC(=O)NO)c1ccc(C(F)(F)F)cc1` [Example 26, (2Z)-3-(4-Methylthiazol-5-yl)-2-(4-trifluoromethylphenyl)-N-[6-(hydroxyamino)-6-oxohexyl]acrylamide], the “HDAC Inhibition 1 μM” value in experiment [1] came out at 39.38. Moreover, the “HDAC Inhibition 10 μM” value in experiment [1] turned out to be 76.69. Further, the GI50 in experiment [2] was found to be 9 µM; in experiment [3], 10 µM; in experiment [4] it was 34 µM; in experiment [6] it was 17.7 µM. Besides, the CC50 in experiment [2] is 100 µM; in experiment [4], greater than 100 µM; in experiment [5] it was 85 µM.
Take `COc1ccc(/C(=C/c2cccc(Cl)c2)C(=O)NCCCCCC(=O)NO)cc1` [Example 28, (2Z)-3-(3-Chlorophenyl)-2-(4-methoxyphenyl)-N-[6-(hydroxyamino)-6-oxohexyl]acrylamide]: the “HDAC Inhibition 1 μM” value in experiment [1] turned out to be 70.82. Further, in experiment [1], the “HDAC Inhibition 10 μM” value was 90.20. The same molecule came in with an IC50 in experiment [1] of 0.44 µM. The GI50 came to 5 µM in experiment [2], 4 µM in experiment [3], 9 µM in experiment [4] and 6 µM in experiment [6]. Moreover, the CC50 in experiment [2] is 45 µM; in experiment [4], 82 µM; in experiment [5] it was 100 µM.
Take `O=C(CCCCCNC(=O)/C(=C\c1ccccc1[N+](=O)[O-])c1ccc(Cl)cc1)NO` [Example 30, (2Z)-3-(2-Nitrophenyl)-2-(4-chlorophenyl)-N-[6-(hydroxyamino)-6-oxohexyl]acrylamide]: the “HDAC Inhibition 1 μM” value in experiment [1] amounted to 52.95. Further, the “HDAC Inhibition 10 μM” value in experiment [1] was found to be 84.69. The GI50 worked out at 6 µM in experiment [2], 3 µM in experiment [3], 30 µM in experiment [4] and 13 µM in experiment [6]. The CC50 in experiment [2], in experiment [4] and in experiment [5] was greater than 100 µM each time.
With `O=C(CCCCCNC(=O)/C(=C\c1ccc(F)cc1Cl)c1ccccc1)NO` [Example 31, (2Z)-3-(2-Chloro-4-fluorophenyl)-2-(phenyl)-N-[6-(hydroxyamino)-6-oxohexyl]acrylamide], the “HDAC Inhibition 1 μM” value in experiment [1] worked out at 72.20. Besides, in experiment [1], the “HDAC Inhibition 10 μM” value was 91.49. Also, the GI50 in experiment [2] was 5 µM; in experiment [3] it was 6 µM; in experiment [4], 9.7 µM; in experiment [6], 6.9 µM. The CC50 in experiment [2] was 97 µM; in experiment [4], greater than 100 µM; in experiment [5] it was greater than 100 µM.
Regarding `O=C(CCCCCNC(=O)/C(=C\c1ccc(Cl)o1)c1ccc(F)cc1)NO` [Example 37, (2Z)-3-(5-Chloro-2-furyl)-2-(4-fluorophenyl)-N-[6-(hydroxyamino)-6-oxohexyl]acrylamide], the “HDAC Inhibition 1 μM” value in experiment [1] came out at 56.87. For the same molecule, in experiment [1], the “HDAC Inhibition 10 μM” value is 83.89. Further, the GI50 stood at 6 µM in experiment [2], 5 µM in experiment [3], 26 µM in experiment [4] and 12.3 µM in experiment [6]. The CC50 in experiment [2] is 90 µM; in experiment [4], 90 µM; in experiment [5], 80 µM.
Take `CSc1ccc(/C=C(\C(=O)NCCCCCC(=O)NO)c2ccc(C(F)(F)F)cc2)cc1` [Example 38, (2Z)-3-(4-Thiomethylphenyl)-2-(4-trifluoromethylphenyl)-N-[6-(hydroxyamino)-6-oxohexyl]acrylamide]: in experiment [1], the “HDAC Inhibition 1 μM” value worked out at 59.26. Moreover, the “HDAC Inhibition 10 μM” value in experiment [1] is listed as 97.74. Further, the GI50 in experiment [2] is 5.5 µM; in experiment [3], 0.07 µM; in experiment [4], 6 µM; in experiment [6], 3.9 µM. Further, the CC50 stood at 65 µM in experiment [2], 64 µM in experiment [4] and 60 µM in experiment [5].
Regarding `COc1ccc(/C(=C/c2c(F)ccc(F)c2F)C(=O)NCCCCCC(=O)NO)cc1` [Example 40, (2Z)-3-(2,3,6-Trifluorophenyl)-2-(4-methoxyphenyl)-N-[6-(hydroxyamino)-6-oxohexyl]acrylamide], in experiment [1], the “HDAC Inhibition 1 μM” value is 79.97. For the same molecule, in experiment [1], the “HDAC Inhibition 10 μM” value is 96.16. Besides, the GI50 in experiment [2] was found to be 5.8 µM; in experiment [3], 1 µM; in experiment [4] it was 3 µM; in experiment [6], 3.27 µM. Moreover, the CC50 was greater than 100 µM in experiment [2], greater than 100 µM in experiment [4] and 80 µM in experiment [5].
As for `CSc1ccc(/C=C(\C(=O)NCCCCCC(=O)NO)c2ccc([N+](=O)[O-])cc2)cc1` [Example 41, (2Z)-3-(4-Thiomethylphenyl)-2-(4-nitrophenyl)-N-[6-(hydroxyamino)-6-oxohexyl]acrylamide], the “HDAC Inhibition 1 μM” value in experiment [1] is recorded as 68.69. Also, the “HDAC Inhibition 10 μM” value in experiment [1] was 92.83. Besides, the GI50 in experiment [2] worked out at 6 µM; in experiment [3] it was 9 µM; in experiment [4], 15 µM; in experiment [6], 10 µM. Further, the CC50 in experiment [2] came to 90 µM; in experiment [4], 94 µM; in experiment [5] it was 90 µM.
Turning to `CSc1ccc(/C=C(\C(=O)NCCCCCC(=O)NO)c2cccs2)cc1` [Example 43, (2Z)-3-(4-Thiomethylphenyl)-2-(thiophene-2-yl)-N-[6-(hydroxyamino)-6-oxohexyl]acrylamide], the “HDAC Inhibition 1 μM” value in experiment [1] turned out to be 89.26. Besides, the “HDAC Inhibition 10 μM” value in experiment [1] turned out to be 100. In experiment [1], half-maximal inhibition (IC50) required 0.26 µM. Further, the GI50 amounted to 5 µM in experiment [2], 0.05 µM in experiment [3], 10 µM in experiment [4] and 5.02 µM in experiment [6]. Further, the CC50 in experiment [2] is 70 µM; in experiment [4], greater than 100 µM; in experiment [5], 75 µM.

Values taken from patent US8263044B2, “Stilbene like compounds as novel HDAC inhibitors” (Orchid Research Laboratories Limited, priority 2005, dated 2012).
